Data on 26 compounds can be found in US7612065B2, “Inhibitors of c-JUN N-terminal kinases (JNK)” (priority 2007, dated 2009).

Structures are written as SMILES. Where only a bound is given, the exact number is not on record here.

One may read the Ki as a dissociation constant, usually derived from enzyme kinetics or from competition with a known ligand.

For the assay, the target named is T1, JNK3 (Homo sapiens, UniProt P53779).
T1 construct: One such construct encodes amino acid residues Ser40-Glu402 of JNK3α1 and is preceded by Met and Gly residues; Met-Gly (initiation methionine plus glycine added for the NcoI site); made in house; host or cells: E. coli BL21 (DE3)
T1 sequence (P53779 40-402): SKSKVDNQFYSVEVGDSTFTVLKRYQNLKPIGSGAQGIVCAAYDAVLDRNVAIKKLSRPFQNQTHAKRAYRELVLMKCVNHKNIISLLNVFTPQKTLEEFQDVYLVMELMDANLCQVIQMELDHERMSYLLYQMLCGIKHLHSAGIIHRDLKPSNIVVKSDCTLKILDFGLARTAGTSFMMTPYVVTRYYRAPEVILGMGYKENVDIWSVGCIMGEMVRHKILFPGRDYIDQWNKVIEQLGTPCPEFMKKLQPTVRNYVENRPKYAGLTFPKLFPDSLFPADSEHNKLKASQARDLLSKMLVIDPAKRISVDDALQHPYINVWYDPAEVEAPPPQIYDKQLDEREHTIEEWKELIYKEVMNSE
As to the kind of experiment: JNK inhibition assay: spectrophotometric coupled-enzyme assay with activated JNK3. Format: biochemical. Particulars: activated JNK3 10 nM, 10 μM ATP, 200 μM EGF receptor peptide, 30° C., competitive inhibition model. An outline of the steps: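 Activated (doubly phosphorylated, MKK7(DD)-activated) human JNK3, 10 nM, preincubated 10 min at 30 °C with inhibitor in 0.1 M HEPES pH 7.5, 10 mM MgCl2, 200 μM EGF receptor peptide, PK/LDH-coupled. Started with 10 μM ATP; A340 decrease followed at 30 °C. Ki from competitive inhibition model fit.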
As for `CCOC(=O)C(=O)Nc1ccc2c(c1)N(Cc1cc(F)cc3c1OCOC3)C(=O)/C2=N\O` [Compound 258], the Ki is less than 1000 nM.
As for `O=C1/C(=N\O)c2cc(Br)ccc2N1Cc1cc(F)cc2c1OCOC2` [Compound 278], the figure is less than 1000 nM; as for `O=C(Nc1ccc2c(c1)N(Cc1cc(F)cc3c1OCOC3)C(=O)/C2=N\O)C1CCCCC1` [Compound 346], not below 1000 nM.
Take `O=C1/C(=N\O)c2cc(F)ccc2N1Cc1cccc(F)c1` [Compound 58]: the inhibition constant Ki is not below 1000 nM.
For the compound `N#Cc1ccccc1CN1C(=O)/C(=N\O)c2ccccc21` [Compound 63], the Ki was not below 1000 nM.
Consider `COc1ccccc1C(=O)Nc1ccc2c(c1)N(Cc1cc(F)cc3c1OCOC3)C(=O)/C2=N\O` [Compound 256], for which the Ki was less than 1000 nM.
Take `Cc1ccc(C(=O)c2ccc3c(c2)/C(=N/O)C(=O)N3Cc2cc(F)cc3c2OCOC3)cc1` [Compound 349]: the inhibition constant (Ki) is not below 1000 nM.
As to `CCc1cccc2c1/C(=N/O)C(=O)N2Cc1cc(F)cc2c1OCOC2` [Compound 325], the Ki was not below 1000 nM.
The same measure for `O=C1/C(=N\O)c2ccccc2N1Cc1ccc(Cl)cc1Cl` [Compound 7]: less than 1000 nM; for `O=C1/C(=N\O)c2cc(-c3cccnc3)ccc2N1Cc1cc(F)cc2c1OCOC2` [Compound 281]: not below 1000 nM; for `COc1ccc(-c2nc(CN3C(=O)/C(=N\O)c4ccccc43)no2)cc1` [Compound 65]: not below 1000 nM.
As for `COC(=O)CCCN1C(=O)/C(=N/O)c2ccc(CBr)cc21` [Compound 190], the figure is not below 1000 nM; as for `N#CCC(=O)Nc1ccc2c(c1)N(Cc1cc(F)cc3c1OCOC3)C(=O)/C2=N\O` [Compound 217], less than 1000 nM; as for `COc1cc(CN2C(=O)/C(=N\O)c3cc(NC(=O)c4cccc(OC)c4)ccc32)cc(OC)c1` [Compound 121], not below 1000 nM.
As to `O=C1/C(=N\O)c2c(-c3ccccc3)cccc2N1Cc1cc(F)cc2c1OCOC2` [Compound 202], the Ki was not below 1000 nM.
With `O=C1/C(=N\O)c2ccc(-c3ccccc3)cc2N1CC1OCCO1` [Compound 163], the Ki is not below 1000 nM.
For the compound `O=C(O)c1ccc(CNc2ccc3c(c2)/C(=N/O)C(=O)N3Cc2cc(F)cc3c2OCOC3)cc1` [Compound 303], the Ki was not below 1000 nM.
Turning to `O=C(c1ccccc1)c1ccc2c(c1)/C(=N/O)C(=O)N2Cc1cc(F)cc2c1OCOC2` [Compound 302], the inhibition constant (Ki) was not below 1000 nM.
The same measure for `O=C1/C(=N\O)c2cc(Cl)ccc2N1Cc1ccc(F)cc1` [Compound 46]: not below 1000 nM; for `O=C(NCc1cccnc1)c1ccc2c(c1)N(Cc1cc(F)cc3c1OCOC3)C(=O)/C2=N\O` [Compound 237]: not below 1000 nM.
On to `O=C(Cc1ccccc1F)Nc1ccc2c(c1)N(Cc1cc(F)cc3c1OCOC3)C(=O)/C2=N\O` [Compound 220], for which the Ki was less than 1000 nM.
In the case of `O=C1/C(=N\O)c2cc(F)ccc2N1Cc1ccc(F)cc1` [Compound 54], the inhibition constant Ki was not below 1000 nM.
For the compound `O=C(NCCc1c[nH]cn1)c1ccc2c(c1)N(Cc1cc(F)cc3c1OCOC3)C(=O)/C2=N\O` [Compound 292], the Ki was not below 1000 nM.
The same measure for `O=C1/C(=N\O)c2cc(Cl)ccc2N1Cc1cccc(Oc2ccccc2)c1` [Compound 73]: not below 1000 nM.
As for `COc1ccc(CN2C(=O)/C(=N\O)c3cc(Cl)ccc32)cc1` [Compound 72], the figure is not below 1000 nM.
In the case of `CN(C)CC(=O)Nc1ccc2c(c1)N(Cc1cc(F)cc3c1OCOC3)C(=O)/C2=N\O` [Compound 223], the inhibitory constant (Ki) was not below 1000 nM.
